From US4921863A, “Cyclic amine derivatives” (Eisai Co., Ltd., priority 1988, dated 1990)

System: learning disorder after ischemia
Test: Effect of remedying learning disorder after ischemia (passive avoidance method)
Type: in vivo, Mongolian gerbils
Details: p.o.; for Latent time (average ± S.E.): 1 h before 5-min ischemia, upper limit 300 sec, normal 246.5, control 71.5 sec; for Recovery ratio: normal = 100, control = 0
Protocol: Common carotid arteries on both sides of Mongolian gerbils (17 to 21 weeks old) were clipped with Skoville clamps without anesthesia and the clamps were removed after 5 min to realize a short period of ischemia. Twenty-four hours after the removal of the clamps, these animals were subjected to learning and memory tests were conducted after an additional 24 h. The learning and memory functions were examined by the passive avoidance method with a modification of a device reported by Jarvik and Kopp in "Psychological Reports", 21, 221 to 224 (1967). The device had two chambers, […] chamber A and a dark chamber B. In the tests, the animals were placed in the well-lighted chamber A and an electric current (A.C., 1.6 mA) was applied to a grid on the floor of the dark chamber B for 5 min when they entered the chamber B. On the next day, the animals subjected to the learning were placed in the chamber A and the time (latent time) which had elapsed before they entered the chamber B was measured. The upper limit of the latent time was set at 300 sec. The compound was administered in the form of a 5% suspension in acacia orally one hour before causing the ischemia. A 5% acacia solution was administered to the control group.

SMILES	Latent time (average ± S.E.) (3 mg/kg)	Recovery ratio (3 mg/kg)	Latent time (average ± S.E.) (10 mg/kg)	Recovery ratio (10 mg/kg)	Latent time (average ± S.E.) (30 mg/kg)	Recovery ratio (30 mg/kg)
Cl.O=C(CN1CCC(C(=O)c2ccc(F)cc2)CC1)c1ccc2ccccc2c1 [Example 12, 2-[4-(p-Fluorobenzoyl)-1-piperidinyl]-2'-acetonaphthone hydrochloride]	168.8 ± 23.0 s	56%	196.8 ± 22.3 s	72%	196.3 ± 37.0 s	71%
c1ccc(CC2CCN(CCc3ccc4ccccc4c3)CC2)cc1 [Example 73]	–	–	193.1 ± 35.3 s	69%	80.1 ± 28.2 s	5%
O=C(CN1CCC(=Cc2ccc(F)cc2)CC1)c1ccc2ccccc2c1 [Example 74]	110.2 ± 29.0 s	22%	123.2 ± 24.3 s	30%	129.2 ± 23.8 s	33%
